Measurements reported in patent US20120040953A1, “Compounds for the Treatment of Metabolic Disorders” (PROSIDION LIMITED, priority 2009, published 2012).

System: male C57Bl/6 or male ob/ob mice
Test: Oral glucose tolerance test in mice
Type: in vivo
Conditions: dose of 30 mg kg^−1, oral
Method: The effects of compounds of the invention on oral glucose (Glc) tolerance were evaluated in male C57Bl/6 or male ob/ob mice. Food was withdrawn 5 h before administration of Glc and remained withdrawn throughout the study. Mice had free access to water during the study. A cut was made to the animals' tails, then blood (20 μL) was removed for measurement of basal Glc levels 45 min before administration of the Glc load. Then, the mice were weighed and dosed orally with test compound or vehicle (20% aqueous hydroxypropyl-β-cyclodextrin or 25% aqueous Gelucire 44/14) 30 min before the removal of an additional blood sample (20 μL) and treatment with the Glc load (2-5 g kg^−1 p.o.). Blood samples (20 μL) were then taken 25, 50, 80, 120, and 180 min after Glc administration. The 20 μL blood samples for measurement of Glc levels were taken from the cut tip of the tail into disposable micro-pipettes (Dade Diagnostics Inc., Puerto Rico) and the sample added to 480 μL of haemolysis reagent. Duplicate 20 μL aliquots of the diluted haemolysed blood were then added to 180 μL of Trinders glucose reagent (Sigma enzymatic (Trinder) colorimetric method) in a 96-well assay plate. After mixing, the samples were left at room temperature for 30 min before being read against Glc standards (Sigma glucose/urea nitrogen combined standard set).

## CC(C)OC(=O)N1CCC(O[C@H](C)c2nc(-c3cnc(N4C[C@H](c5cc(F)ccc5F)[C@@H](N)C4)nc3)no2)CC1.Cc1ccc(S(=O)(=O)O)cc1 [Example 18, 4-[(R)-1-(3-{2-[(3R,4S)-3-Amino-4-(2,5-difluorophenyl)pyrrolidin-1-yl]pyrimidin-5-yl}-[1,2,4]oxadiazol-5-yl)ethoxy]piperidine-1-carboxylic acid isopropyl ester p-toluenesulfonic acid salt]
  reduction in the Glc excursion: > 40%
